Patent US5028607A, “Bis(aryl)alkene compounds” (Adir et Compagnie, priority 1989, dated 1991)
Structures can show the parent of a compound that is named as a salt. Where two headings read alike, the source gives them in different places.

How the values were obtained:
5-hydroxytryptophan = test: 5-HTP antagonism (symptoms induced by 5-hydroxytryptophan); assay type: in vivo, rats (female Wistar); conditions: Rattus norvegicus
Experimental: The animals are then placed under observation in transparent cages. Three parameters are assessed in the study: "forepaw treading", "flat body posture" and "head twitches". "Forepaw treading" corresponds to a pedaling motion of the forelimbs. This parameter is measured 80 minutes after the administration of […] and during a 10-minute observation period. […] This parameter is assessed throughout the period of observation of the animals.

5-HT2 = molecular target: T1, 5-HT2 (Rattus norvegicus, UniProt P14842); test: 5-HT2 antagonism (inhibition of 5-hydroxytryptamine hypertensive response, anesthetized rats); assay type: in vivo, rats (male Sprague-Dawley); conditions: iv, cumulative doses, 5-hydroxytryptamine 100 μg/kg i.v., rats pretreated with d-tubocurarine and prazosin, read-out: ID50, dose inhibiting the hypertensive response by 50%
T1 construct: from tissue; host or cells: whole anesthetized male Sprague-Dawley rat; vasculature (blood pressure response)
Experimental: Male Sprague-Dawley rats (350-400 g) are anesthetized i.p. with pentobarbital (45 mg/kg). The trachea is cannulated and the animals are subjected to artificial respiration. The vagus nerves are sectioned. A catheter is placed in a carotid artery to record the arterial blood pressure. A second catheter is placed in the vein of the penis and is used for the injections. The animals' temperature is taken and is maintained at 37° C. The rats are pretreated with d-tubocurarine (1 mg/kg i.v.) and prazosin (1 mg/kg i.v.). 5-Hydroxytryptamine is injected i.v. at a dose of 100 μg/kg twice, separated by an interval of 10 minutes, so as to determine the rise in the systolic arterial blood pressure of each rat. 10 minutes later, the compounds of the invention are injected at the lowest dose and injection of 5-hydroxytryptamine is performed again 10 minutes later. 3 or 4 cumulative doses of the compounds of the invention are tested in the same manner. The percentages of the hypertensive response which are obtained at the different doses are calculated in order to determine the ID50, the dose inhibiting the hypertensive response by 50%.

α1 = α1 antagonism (inhibition of phenylephrine hypertensive response, pithed rats); assay type: in vivo, rats (male Sprague-Dawley); conditions: cumulative doses, phenylephrine 4 g/kg i.v., Tertatolol 100 μg/kg i.v. pretreatment
Excerpt: α1 antagonism Male Sprague-Dawley rats (300-400 g) which have been subjected to a water diet are anesthetized with ethyl ether. A cannula is placed in the trachea. The spinal cord is destroyed by means of a steel rod and artificial respiration is instituted at once. The vagus nerves are sectioned. The carotid arteries are ligated and a catheter is placed in one of them to record the arterial blood pressure. A second catheter is placed in the vein of the penis and is used for the injections. The animals' temperature is taken and is maintained at 36° C. The rats are pretreated with a β-blocker (Tertatolol 100 μg/kg i.v.). Phenylephrine is injected at a dose of […] i.v. Two identical injections are performed, separated by an interval of 10 minutes. The compounds of the invention are injected at the lowest dose and injection of phenylephrine is performed again 10 minutes later. 3 or 4 cumulative doses of the compounds of the invention are tested in the same manner. The values for the percentage inhibition of the hypertensive response which are obtained at the different doses are calculated in order to determine the ID50.

[1] = po, 80 min, compounds orally, 5-hydroxytryptophan 320 mg/kg by gavage, scored at 80 minutes, read-out: ED50 FPT (forepaw treading)
[2] = po, compounds orally, 5-hydroxytryptophan 320 mg/kg by gavage, read-out: ED50 FBP (flat body posture)
[3] = sc, 80 min, compounds subcutaneously, 5-hydroxytryptophan 320 mg/kg by gavage, scored at 80 minutes, read-out: ED50 FPT (forepaw treading)
[4] = sc, 1.5 h, read-out: ED50 HT (head twitches)
[5] = sc, compounds subcutaneously, 5-hydroxytryptophan 320 mg/kg by gavage, read-out: ED50 FBP (flat body posture)
[6] = ip, 80 min, compounds intraperitoneally, 5-hydroxytryptophan 320 mg/kg by gavage, scored at 80 minutes, read-out: ED50 FPT (forepaw treading)
[7] = ip, 1.5 h, read-out: ED50 HT (head twitches)
[8] = ip, compounds intraperitoneally, 5-hydroxytryptophan 320 mg/kg by gavage, read-out: ED50 FBP (flat body posture)
[9] = po, 1.5 h, read-out: ED50 HT (head twitches)

T1 sequence (P14842 whole entry): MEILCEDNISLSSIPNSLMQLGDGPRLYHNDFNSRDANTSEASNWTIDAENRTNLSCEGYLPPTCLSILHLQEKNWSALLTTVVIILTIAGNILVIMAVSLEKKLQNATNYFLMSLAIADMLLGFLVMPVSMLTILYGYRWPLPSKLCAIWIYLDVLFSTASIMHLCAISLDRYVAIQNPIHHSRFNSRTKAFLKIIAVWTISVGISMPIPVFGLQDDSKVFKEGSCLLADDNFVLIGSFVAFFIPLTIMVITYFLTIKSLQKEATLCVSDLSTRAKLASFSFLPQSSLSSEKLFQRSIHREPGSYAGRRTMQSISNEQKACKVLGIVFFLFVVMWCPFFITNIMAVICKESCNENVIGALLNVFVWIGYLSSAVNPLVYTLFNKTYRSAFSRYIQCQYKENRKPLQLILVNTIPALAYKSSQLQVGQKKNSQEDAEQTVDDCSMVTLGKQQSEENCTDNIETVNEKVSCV

## O=C1CN(Cc2ccccc2F)CC(=O)N1CCCN1CCC(=C2c3ccccc3-c3ccccc32)CC1 [EXAMPLE 6, 1-{3-[4-(9-Fluorenylidenyl)piperidino]propyl}-4-(2-fluorobenzyl)-2,6-piperazinedione hydrochloride]
5-hydroxytryptophan; [1]
  ED50: 5 mg/kg
5-hydroxytryptophan; [2]
  ED50: 2.5 mg/kg
5-HT2
  ED50: 0.039 mg/kg

## Cl.O=C1CN(Cc2ccccc2F)CC(=O)N1CCCN1CCC(=C(c2ccccc2)c2ccc(F)cc2)CC1 [EXAMPLE 5, 4-(2-Fluorobenzyl)-1-{3-[4-[(4-fluorophenyl)phenylmethylene]piperidino]propyl}-2,6-piperazinedione hydrochloride]
5-HT2
  ED50: 0.034 mg/kg

## Cc1nc2c(C(N)=O)ncn2c(O)c1CCCN1CCC(=C(c2ccccc2)c2ccc(F)cc2)CC1.Cl [EXAMPLE 9, 8-Carbamoyl-3-{3-[4-[(4-fluorophenyl)phenylmethylene]piperidino]propyl}-4-hydroxy-2-methylimidazo[1,5-a]-pyrimidine hydrochloride]
α1
  ID50, inhibition of the hypertensive response to phenylephrine: > 5 mg/kg

## O=C1CN(Cc2ccccn2)CC(=O)N1CCCN1CCC(=C(c2ccccc2)c2ccc(F)cc2)CC1 [EXAMPLE 10, 1-{3-4-(4-Fluorophenyl)phenylmethylene]piperidino]propyl}-4-(2-pyridylmethyl)-2,6-piperazinedione dihydrochloride]
5-hydroxytryptophan; [3]
  ED50: 1.25 mg/kg
5-hydroxytryptophan; [4]
  ED50: 40 mg/kg
5-hydroxytryptophan; [5]
  ED50: 0.16 mg/kg
5-HT2
  ED50: 0.0082 mg/kg

## Cc1nc2c(C(N)=O)ncn2c(O)c1CCN1CCC(C=C(c2ccc(F)cc2)c2ccc(F)cc2)C1 (centres unmarked) [EXAMPLE 24, 3-(3-4-2,2-Bis(4-fluorophenyl)vinyl]pyrrolidino]ethyl}-8-carbamoyl-4-hydroxy-2-methylimidazo[1,5-a]-pyrimidine hydrochloride]
α1
  ID50, inhibition of the hypertensive response to phenylephrine: > 5 mg/kg

## Fc1ccc(C(=C2CCN(CCCN3CCN(c4ncccn4)CC3)CC2)c2ccc(F)cc2)cc1 [EXAMPLE 7, 1-{3-[4-Bis(4-fluorophenyl)methylene]piperidino]propyl}-4-(2-pyrimidinyl)piperazine dihydrochloride]
5-hydroxytryptophan; [3]
  ED50: 5 mg/kg
5-hydroxytryptophan; [4]
  ED50: > 10 mg/kg
5-hydroxytryptophan; [5]
  ED50: 5 mg/kg

## Cl.Cl.O=C1CN2Cc3ccccc3CC2C(=O)N1CCN1CCC(=C(c2ccccc2)c2ccc(F)cc2)CC1 (centres unmarked) [EXAMPLE 2, 2-{2-[4-[(4-Fluorophenyl)phenylmethylene]piperidino]ethyl}-1,3,4,6,11,11a-hexahydro-1,3-dioxo-2H-pyrazino[1,2-b]-isoquinoline dihydrochloride]
5-hydroxytryptophan; [6]
  ED50: 1.25 mg/kg
5-hydroxytryptophan; [7]
  ED50: 5 mg/kg
5-hydroxytryptophan; [8]
  ED50: 1.25 mg/kg

## Cc1nc2c(C#N)ncn2c(O)c1CCN1CCC(=C(c2ccccc2)c2ccc(F)cc2)CC1.Cl [EXAMPLE 4, 8-Cyano-3-{2-[4-[(4-fluorophenyl)phenylmethylene]piperidino]ethyl}-4-hydroxy-2-methylimidazo[1,5-a]-pyrimidine hydrochloride]
5-hydroxytryptophan; [1]
  ED50: 1.25 mg/kg
5-hydroxytryptophan; [9]
  ED50: 10 mg/kg
5-hydroxytryptophan; [2]
  ED50: 1.25 mg/kg
α1
  ID50, inhibition of the hypertensive response to phenylephrine: > 5 mg/kg

## Cc1ccc(C(=C2CCN(CCc3c(C)nc4c(C(N)=O)ncn4c3O)CC2)c2ccccc2)cc1.Cl [EXAMPLE 13, 8-Carbamoyl-4-hydroxy-3-{2-[4-[(4-methylphenyl)-phenylmethylene]piperidino]ethyl}-2-methylimidazo[1,5-a]-pyrimidine hydrochloride]
5-HT2
  ED50: 0.027 mg/kg
α1
  ID50, inhibition of the hypertensive response to phenylephrine: 3.05 mg/kg

## O=C1CN(Cc2ccccc2F)CC(=O)N1CCCN1CCC(C=C(c2ccc(F)cc2)c2ccc(F)cc2)C1 (centres unmarked) [EXAMPLE 8, 1-{3-[3-[2,2-bis(4-fluorophenyl)vinylene]-1-pyrrolidinyl]propyl}-4-(2-fluorobenzyl)-2,6-piperazinedione dihydrochloride]
α1
  ID50, inhibition of the hypertensive response to phenylephrine: 5.3 mg/kg

## Cc1nc2c(C#N)ncn2c(O)c1CCN1CCC(=C(c2ccc(F)cc2)c2ccc(F)cc2)CC1 [EXAMPLE 11, 3-{2-[4-Bis(4-fluorophenyl)methylene]piperidino]ethyl}-8-cyano-4-hydroxy-2-methylimidazo[1,5-a]-pyrimidine hydrochloride]
5-hydroxytryptophan; [1]
  ED50: 5 mg/kg
5-hydroxytryptophan; [9]
  ED50: 10 mg/kg
5-hydroxytryptophan; [2]
  ED50: 1.25 mg/kg
α1
  ID50, inhibition of the hypertensive response to phenylephrine: > 5 mg/kg

## O=c1[nH]c2ccccc2c(=O)n1CCN1CCCC(=C(c2ccc(F)cc2)c2ccc(F)cc2)CC1 [EXAMPLE 25, 3-{2-[4-[Bis(4-fluorophenyllmethylene]perhydroazepin-1-yl]ethyl}-2,4-dioxo-1,2,3,4-tetrahydrocuinazoline hydrochloride]
α1
  ID50, inhibition of the hypertensive response to phenylephrine: 3.05 mg/kg

## Cc1nc2c(C(N)=O)ncn2c(O)c1CCN1CCCC(C=C(c2ccc(F)cc2)c2ccc(F)cc2)C1 (centres unmarked) [EXAMPLE 23, 3-{2-[3-[2,2-Bis(4-fluorophenyl)vinylene]piperidino]ethyl}-8-carbamoyl-4-hydroxy-2-methylimidazo[1,5-a]-pyrimidinehydrochloride]
α1
  ID50, inhibition of the hypertensive response to phenylephrine: > 5 mg/kg

## Cc1nc2c(C(N)=O)ncn2c(O)c1CCN1CCC(=C(c2ccccc2)c2ccc(F)cc2)CC1.Cl [EXAMPLE 3, 8-Carbamoyl-3-{2-[4-[(4-fluorophenyl)phenylmethylene]piperidino]ethyl}-4-hydroxy-2-methylimidazo[1,5-a]-pyrimidine hydrochloride]
5-hydroxytryptophan; [3]
  ED50: 10 mg/kg
5-hydroxytryptophan; [5]
  ED50: 10 mg/kg
5-HT2
  ED50: 0.024 mg/kg
α1
  ID50, inhibition of the hypertensive response to phenylephrine: > 5 mg/kg

## Cc1nc2c(C(N)=O)ncn2c(O)c1CCN1CCC(=C(c2ccc(F)cc2)c2ccc(F)cc2)CC1.Cl [EXAMPLE 1, 3-{2-[4-[bis(4-fluorophenyl)methylene]piperidino]ethyl}-8-carbamoyl-4-hydroxy-2-methylimidazo [1,5-a]pyrimidine hydrochloride]
5-hydroxytryptophan; [6]
  ED50: 2.5 mg/kg
5-hydroxytryptophan; [7]
  ED50: 0.63 mg/kg
5-hydroxytryptophan; [8]
  ED50: 0.08 mg/kg
5-hydroxytryptophan; [1]
  ED50: 10 mg/kg
5-hydroxytryptophan; [9]
  ED50: > 10 mg/kg
5-hydroxytryptophan; [2]
  ED50: 0.16 mg/kg
5-HT2
  ED50: 0.013 mg/kg
α1
  ID50, inhibition of the hypertensive response to phenylephrine: > 5 mg/kg
